Read-outs that look alike come from different tables or passages of the source.
How the values were obtained:
OBP9 = OBP9 (Acyrthosiphon pisum, UniProt A0A8R1TD77); assay: 1-NPN fluorescence competitive binding assay, OBP9
Description: (§1) All fluorescent measurements were undertaken using a Perkin-Elmer LS50B fluorescence spectrophotometer, using a 2 mL quartz cuvette, and the settings described below in Table 13, unless otherwise stated. Spectra were recorded using FL WinLab software.
(§2) Saturation of OBPs with fluorescent probe and 1-NPN (Sigma-Aldrich) was initially measured by titrating a 2 μM protein sample (2 mL in 25 mM Tris-HCl) with aliquots of 1 mM ligand (Sigma-Aldrich) in methanol to final concentrations of 1-16 μM. The fluorescence intensity at […] was recorded.
(§3) The competitive binding of ligands was measured by observing the intrinsic fluorescence of tryptophan. Titrations were performed with aliquots of 1 mM ligand in methanol to final concentrations of 1-20 μM, either after the addition of fluorescent probe to a final concentration of 1 μM or in the absence of fluorescent probe.
(§4) To generate KD values, relative fluorescence intensity was plotted against the concentration of ligand as a binding curve. KD values were generated in GraphPad Prism 7 using a non-linear regression and the inbuilt equation: […]

OBP6 [1] = target: T1, OBP6 (Acyrthosiphon pisum, UniProt A0A8R1TDN2); assay: 1-NPN fluorescence competitive binding assay, OBP6
Description: as §1, §2, §3, §4

OBP6 [2] = target: T1, OBP6; assay: Fluorescent probe-free (intrinsic tryptophan fluorescence) binding assay, OBP6
Description: as §1, §3, §4

[3] = OBP9 with 1-NPN fluorescent probe, non-linear regression, ± error, read-out: OBP9 1-NPN Assay KD
[4] = OBP6 with 1-NPN fluorescent probe, non-linear regression, ± error, read-out: OBP6 1-NPN Assay KD
[5] = OBP6, absence of fluorescent probe, non-linear regression, ± error, read-out: OBP6 Fluorescent Probe-Free Assay KD

Chain of OBP9 (A0A8R1TD77 1-165): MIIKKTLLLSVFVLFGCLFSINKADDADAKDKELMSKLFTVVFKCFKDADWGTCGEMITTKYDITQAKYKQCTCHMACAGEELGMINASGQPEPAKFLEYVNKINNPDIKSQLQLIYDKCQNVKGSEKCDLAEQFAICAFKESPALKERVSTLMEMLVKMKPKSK
T1 sequence (A0A8R1TDN2 1-160): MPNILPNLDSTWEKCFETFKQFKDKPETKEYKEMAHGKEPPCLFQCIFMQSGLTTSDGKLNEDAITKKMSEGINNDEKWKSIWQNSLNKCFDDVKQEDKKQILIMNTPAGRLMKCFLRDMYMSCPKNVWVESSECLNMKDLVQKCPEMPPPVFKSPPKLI

SMILES	Kd (OBP9) [µM]	Kd (OBP6 [1]) [µM]	Kd (OBP6 [2]) [µM]	Kd (OBP9; [3]) [µM]	Kd (OBP6 [1]; [4]) [µM]	Kd (OBP6 [2]; [5]) [µM]
CC1=COC(=O)[C@H]2[C@H](C)CC[C@@H]12 [Compound D, (4aR,7R,7aS)-4,7-dimethyl-5,6,7,7a-tetrahydrocyclopenta[c]pyran-1(4aH)-one]	9.68 ± 4.57	4.37 ± 0.81	12 ± 4.24	–	–	–
C=CC(C)(O)CCC=C(C)C (racemic) [(R/S)-linalool]	–	8.95 ± 3.71	–	–	–	–
CC1=CO[C@H](O)[C@H]2[C@H](C)CC[C@@H]12 [Compound C, (1S,4aR,7R,7aS)-4,7-dimethyl-1,4a,5,6,7,7a-hexahydrocyclopenta[c]pyran-1-ol]	–	–	–	6.29 ± 1.99	2.65 ± 0.8	8.46 ± 1.62
CC1=CO[C@@H](O)[C@H]2[C@@H]1CC[C@@H]2C [Compound A, (1R,4aS,7S,7aR)-4,7-dimethyl-1,4a,5,6,7,7a-hexahydrocyclopenta[c]pyran-1-ol]	–	–	–	5.74 ± 1.71	2.62 ± 0.63	12.7 ± 2.31
CC1=COC(=O)[C@H]2[C@@H]1CC[C@@H]2C [Compound B, (4aS,7S,7aR)-4,7-dimethyl-5,6,7,7a-tetrahydrocyclopenta[c]pyran-1(4aH)-one]	–	–	–	6.49 ± 1.58	1.3 ± 0.6	1.9 ± 0.35
C=CC(=C)CC/C=C(\C)CCC=C(C)C [(E)-β-farnesene]	–	–	–	8.32 ± 2.67	10.1 ± 2.88	34.5 ± 10.9

Source: patent publication US20230312476A1, “COMPOUNDS WITH SEMIOCHEMICAL PROPERTIES AND BIOSENSORS” (ROTHAMSTED RESEARCH LIMITED, priority 2020, published 2023)
